Laboratory results from paper PMC11836371, “Virtual fragment screening for DNA repair inhibitors in vast chemical space” (Nature Communications, 2025).
Values joined by “and” are separate entries in the source; they are usually repeats but may differ in a detail not shown here. Equal entries are not always repeated. Where two headings read alike, the source gives them in different places.

Tests used:
[1] = target: T1, human OGG1 enzyme (Homo sapiens, UniProt O15527); experiment: OGG1 glycosylase activity assay (enzyme inhibition, APE1-coupled fluorescence); format: biochemical
Description: “8” signifies 8-oxoA and “FAM” and “Dab” signify fluorescein and dabcyl (TriLink Biotech). Briefly, compounds dissolved in DMSO were dispensed using an Echo 550 (Labcyte), followed by transfer of enzyme and substrate solutions manually with a 16-channel pipette or with a Multidrop (Thermo Scientific). The plates were centrifuged, sealed and incubated at room temperature overnight (15 h) and read the following morning in an Hidex Sense plate reader (Hidex Oy) using a 485-nm filter with a bandwidth of 10 nm for excitation and a 535-nm filter with a bandwidth of 20 nm for emission.

[2] = target: T1, human OGG1 enzyme; experiment: Differential scanning fluorimetry (DSF) thermal shift assay; format: binding; parameters: ∆Tm (K): unit of the concentration uncertain
Description: The temperature was increased from 20 °C to 85 °C with 10 readings/degree. Tm values were calculated using an excel template and fitting to the Boltzmann equation in Prism v.6.07 (GraphPad Software).

[3] = test system: NF-κB activation in HEK293T pGF NF-κB cells; experiment: TNF-α induced NF-κB activation assay; format: cell-based; settings: Homo sapiens, HEK-293T; NFκB activation assay; ± SD; read-out: pEC50 (converted)
Description: The inhibition of TNF-α induced NF-κB activation was measured in HEK293T cells transfected with the pGreenfire NF-κB plasmid. This is a plasmid that has NF-κB response elements (TRE) coupled to GFP and luciferase expression. When the NF-κB is activated by TNF-α, it binds to the TRE and induces GFP expression, and the fluorescence can be measured in a plate reader. The cells were authenticated with STR profiling, frozen down and these stocks were used in experiments. The HEK293T pGF NF-κB cells were kept in DMEM with 5% FBS and 1% P/S but, when seeded for the assay the medium was changed to DMEM FluoroBrite with 1% dialyzed FBS. All cell culture reagents were purchased from Thermo Fisher Scientific. Compounds were nano-dispensed (Echo acoustic dispenser) in 96-well, black/clear, assay plates (Corning #3904), duplicate plates, in 8-points dose-response curves, 1:2 dilutions, with DMSO compensation (0.3% DMSO). Cells were seeded at 30000 cells/well in medium containing 10 ng/mL of TNF-α (Sigma-Aldrich), except negative control wells which only contained cells in medium. Cells were cultured for 24 hours in a humidified incubator at 37 °C with 5% CO2 after which the GFP fluorescence was measured in a Sense plate reader (Hidex) with ex485/em535. The RFU data from the duplicate plates were combined to calculate % inhibition of NF-κB activation and IC50-values were calculated using XLfit (IDBS). In parallel with the NF-κB assay, a CellTiterGlo (Promega) cell viability assay was run to exclude compounds affecting cell viability. Compounds were nano-dispensed (Echo acoustic dispenser) in assay plates in 11-points dose-response curves, 1:3 dilutions, without DMSO compensation, with duplicates on the same plate. Cells were seeded at 7500 cells/well in 25 µL medium (DMEM FluoroBrite with 1% dialyzed FBS) containing 10 ng/mL TNF-α and cultured for 24 hours, with column 24 containing only culture medium. After equilibration to room temperature, the CellTiterGlo reagents were mixed and 25 µL/well were added to the cell plate. After 2 min mixing of the plate on an orbital shaker, the plate was incubated for 10 min at room temperature followed by luminescence reading in Sense. The cell viability was calculated compared to untreated control wells and the EC50 values were determined in XLfit (IDBS). […]

[4] = test system: A2780 cells; experiment: Cancer cell viability assay (resazurin), A2780; format: cell-based; settings: two independent experiments; for percentage cell viability: A2780, 100 μM, 100 µM; for viability at 100 µM: Homo sapiens, A2780, A2780, 100 μM, read-out: percentage cell viability
Description: (§1) Three different cancer cell lines A2780 (ovarian cancer, ECACC 93112519), A549 (lung cancer, ATCC 60150896) and HCT116 (colon cancer, ATCC CCL-247), and one immortalized fibroblast cell line (BJhTERT) as control, were seeded in black/clear 384-well plates (Corning #3764), 50 µL/well, containing 11 concentrations, nano-dispensed, dose-response curves of the test compounds. A2780, HCT116, and HEK293T cell lines were authenticated with STR profiling, frozen down, and these stocks were used in experiments. The A2780 cells were cultured in RPMI 1640, the A549 and BJhTERT cells in DMEM, and the HCT116 cells in McCoys 5 A medium. All media were supplemented with 10% FBS and 1% P/S. All cell culture media, additives, and reagents were purchased from Thermo Fisher Scientific. The cell plates were incubated 72 hours in a humidified incubator at 37 °C with 5% CO2, after which resazurin (Sigma-Aldrich), 10 µL/well, was added to a final concentration of 10 µg/mL. The plates were incubated for 6 hours with resazurin followed by fluorescence readings in a Sense plate reader (Hidex), resorufin protocol (ex 544 nm/em 595 nm). The cell viability was calculated compared to untreated control wells and the EC50 values were determined in XLfit (IDBS).

[5] = test system: A549 cells; experiment: Cancer cell viability assay (resazurin), A549; format: cell-based; settings: two independent experiments; for percentage cell viability: A549, 100 μM, 100 µM; for viability at 100 µM: Homo sapiens, A549, A549, 100 μM, read-out: percentage cell viability
Description: as §1

[6] = test system: HCT116 cells; experiment: Cancer cell viability assay (resazurin), HCT116; format: cell-based; settings: two independent experiments; for percentage cell viability: HCT116, 100 μM, 100 µM; for viability at 100 µM: Homo sapiens, HCT-116, HCT116, 100 μM, read-out: percentage cell viability
Description: as §1

[7] = Cell viability assay (resazurin), BJhTERT non-transformed control; format: cell-based; settings: human, BJhTERT, 100 μM, two independent experiments; read-out: percentage cell viability
Description: (§2) A2780, HCT116, and HEK293T cell lines were authenticated with STR profiling, frozen down, and these stocks were used in experiments. […] All media were supplemented with 10% FBS and 1% P/S. All cell culture media, additives, and reagents were purchased from Thermo Fisher Scientific. The cell plates were incubated 72 hours in a humidified incubator at 37 °C with 5% CO2, after which resazurin (Sigma-Aldrich), 10 µL/well, was added to a final concentration of 10 µg/mL. […] The cell viability was calculated compared to untreated control wells and the EC50 values were determined in XLfit (IDBS).

[8] = test system: BJhTERT cells; experiment: as above; format: cell-based; settings: BJhTERT, 100 μM, two independent experiments
Description: as §2

[9] = Table S5, ± SD, read-out: pIC50 (converted)
[10] = 99 (unit uncertain) as printed in sheet footnote

T1 sequence (O15527 whole entry): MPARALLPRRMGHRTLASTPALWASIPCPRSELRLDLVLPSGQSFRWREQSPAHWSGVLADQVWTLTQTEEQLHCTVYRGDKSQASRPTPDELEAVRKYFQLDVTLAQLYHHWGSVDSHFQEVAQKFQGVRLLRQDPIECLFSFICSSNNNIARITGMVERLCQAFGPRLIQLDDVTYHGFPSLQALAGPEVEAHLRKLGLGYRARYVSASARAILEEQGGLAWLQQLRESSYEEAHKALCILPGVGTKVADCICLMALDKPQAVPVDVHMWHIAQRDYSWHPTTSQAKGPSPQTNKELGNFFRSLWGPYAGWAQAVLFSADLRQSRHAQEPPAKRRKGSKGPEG

SMILES | IC50 [1, 9] [µM] | ∆Tm (K) ([2]; 99 μM) | EC50 [3] [µM] | percentage cell viability [4] [%] | viability at 100 µM [4] [%] | percentage cell viability [5] [%] | viability at 100 µM [5] [%] | percentage cell viability [6] | viability at 100 µM [6] [%] | viability at 72 h, 100 µM [7] [%] | percentage cell viability [8] | also measured
Cc1[nH]c(Br)nc1-c1ccc(CC(=O)Nc2noc3c2CCCC3)cc1 [compound 21] | 2.09 | 5.9 K | 11.5 | 6.18 | 4.62 | 31.92 | 23.9 | 47.52% | 38.9 | 63.3 | 76% | –
Cc1nn(-c2ccc(CC(=O)Nc3noc4c3CCCC4)cc2)c2ccccc12 [compound 10] | 1.29 | 4.8 ± 0.4 K | 6.61 | 1.45 | 0.84 | 6.63 | 5.97 | 2.45% | 2 | 8.08 | 8.77% | –
O=C(Cc1ccc(-n2ncc3c2CCNC3)cc1)Nc1noc2c1CCCC2 [compound 16] | > 100 | – | > 31.6 | – | – | – | – | – | – | – | – | –
O=C(Cc1ccc(-n2ncc3ccncc32)cc1)Nc1noc2c1CCCC2 [compound 13] | 47.9 | – | 14.1 | – | – | – | – | – | – | – | – | –
Cc1nn(-c2ccc(CC(=O)Nc3noc4c3CCCC4)cc2)c2ccc(N)cc12 [compound 14] | 9.77 | – | 6.61 | 5.95 | 3.81 | 28.85 | 28.3 | 30.89% | 26 | 38.5 | 41.42% | –
Cc1cc(C)n(-c2cc(F)c(CC(=O)Nc3noc4c3CCCC4)c(F)c2)n1 [compound 8] | – | 5.4 ± 0.5 K | 11.2 | 19.16 | 17.4 | 33.07 | 32.8 | 43.25% | 35.4 | 40.1 | 42.84% | IC50 ([1]; Table 1, mean ± SD, at least three independent replicates, read-out: pIC50 (converted)): 6.46 µM; ∆Tm (K) [2, 10]: 5.4 ± 0.5 K
Cc1nc(-c2ccc(CC(=O)Nc3noc4c3CCCC4)c(C)c2)c(C)[nH]1 [compound 19] | 0.813 | 7.4 ± 0.2 K | 10.5 | 2.96 | 2.43 | – | – | 6.65% | 5.31 | 15.2 | 24.77% | –
Cc1nc(-c2ccc(CC(=O)Nc3noc4c3CCCC4)nc2)c(C)[nH]1 [compound 22] | 1.95 | 6.3 K | 28.2 | 65.16 | 50.2 | 96.69 | 79.4 | 64.01% and 103.96% | – | – | 76.15% and 96.63% | –
Cc1nc(-c2ccc(CC(=O)Nc3noc4c3CCCC4)c(F)c2)c(C)[nH]1 [compound 20] | 0.741 | 8.6 ± 0.5 K | 20.4 | 2.93 | 2.84 | 35.78 | 35 | 15.72% | 13 | 23.9 | 24.23% | –
Cc1cc(C)n(-c2ccc(CC(=O)Nc3noc4c3CCCC4)cc2)n1 [compound 7] | – | 5.5 K and 5.5 ± 1.2 K | 35.5 | – | – | – | – | – | – | – | – | OGG1 inhibition, dose-response (Figure2C) ([1]; Concentration (M) 9.67e-7): 16.25 and 10.96; OGG1 inhibition, dose-response (Figure2C) ([1]; Concentration (M) 1.93e-6): 24.11 and 22.26; OGG1 inhibition, dose-response (Figure2C) ([1]; Concentration (M) 3.87e-6): 37.42 and 38.76; OGG1 inhibition, dose-response (Figure2C) ([1]; Concentration (M) 7.73e-6): 52.82 and 50.97; OGG1 inhibition, dose-response (Figure2C) ([1]; Concentration (M) 1.55e-5): 74.43 and 67.46; OGG1 inhibition, dose-response (Figure2C) ([1]; Concentration (M) 3.09e-5): 80.92 and 75.35; OGG1 inhibition, dose-response (Figure2C) ([1]; Concentration (M) 6.19e-5): 85.03 and 86.63; OGG1 inhibition, dose-response (Figure2C) ([1]; Concentration (M) 0.000124): 92.57 and 92.28; OGG1 inhibition, dose-response (Figure2C) ([1]; Concentration (M) 0.000248): 92.32 and 95.26; OGG1 inhibition, dose-response (Figure2C) ([1]; Concentration (M) 0.000495): 96.86 and 92.16; IC50 ([1]; read-out: IC50): 6.6 µM; ∆Tm (K) [2, 10]: 5.5 ± 1.2 K; ΔTm ([2]; concentration not given): 5.5 K
O=C(Cc1ccc(-n2ncc3c2CNCC3)cc1)Nc1noc2c1CCCC2 [compound 15] | – | – | 13.2 | – | – | – | – | – | – | – | – | –
